Where two headings read alike, the source gives them in different places.
Legend:
TLR8 = molecular target: T1, TLR8 (Homo sapiens, UniProt Q9NR97); assay: In vitro human TLR8 binding reporter assay (HEK-Blue, NF-kB/AP1-inducible SEAP); assay type: cell-based; settings: read-out: TLR8 Agonist EC50
T1 construct: human HEK-Blue cells co-expressing a TLR7 or TLR8 gene
T1 sequence (Q9NR97 27-1041): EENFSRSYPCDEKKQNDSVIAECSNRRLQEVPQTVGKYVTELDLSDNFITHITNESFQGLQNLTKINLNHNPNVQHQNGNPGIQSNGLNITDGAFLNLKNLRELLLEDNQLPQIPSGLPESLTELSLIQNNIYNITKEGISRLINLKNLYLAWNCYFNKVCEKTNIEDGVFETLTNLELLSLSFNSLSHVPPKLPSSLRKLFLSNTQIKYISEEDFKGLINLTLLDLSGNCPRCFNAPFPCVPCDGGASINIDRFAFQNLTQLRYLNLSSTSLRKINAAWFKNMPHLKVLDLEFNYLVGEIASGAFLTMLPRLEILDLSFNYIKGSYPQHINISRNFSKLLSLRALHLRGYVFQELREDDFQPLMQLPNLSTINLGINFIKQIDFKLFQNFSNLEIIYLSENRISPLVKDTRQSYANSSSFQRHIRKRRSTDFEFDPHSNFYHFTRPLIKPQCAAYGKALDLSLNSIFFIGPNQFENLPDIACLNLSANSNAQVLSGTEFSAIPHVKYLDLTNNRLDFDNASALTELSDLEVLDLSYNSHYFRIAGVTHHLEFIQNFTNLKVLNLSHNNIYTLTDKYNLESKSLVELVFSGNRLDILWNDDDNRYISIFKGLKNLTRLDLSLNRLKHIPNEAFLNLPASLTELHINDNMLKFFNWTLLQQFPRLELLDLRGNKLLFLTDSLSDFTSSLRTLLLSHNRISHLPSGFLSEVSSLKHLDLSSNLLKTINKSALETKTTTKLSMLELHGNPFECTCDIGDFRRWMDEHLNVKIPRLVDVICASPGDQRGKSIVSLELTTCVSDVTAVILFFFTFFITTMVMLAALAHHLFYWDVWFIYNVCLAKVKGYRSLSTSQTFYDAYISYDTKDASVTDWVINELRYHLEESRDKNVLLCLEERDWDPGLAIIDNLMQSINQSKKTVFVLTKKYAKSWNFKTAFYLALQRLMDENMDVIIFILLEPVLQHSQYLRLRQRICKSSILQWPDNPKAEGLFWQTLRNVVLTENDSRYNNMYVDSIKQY
Summary of the method: (§1)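 Cells are seeded and grown for 24 h. Compounds or DMSO are then added and incubated 18 h at 37 °C. Quanti-Blue is added, and SEAP is read after thirty minutes. EC50 values are normalized, with RLU from 50 μM reference standard setting 100% Ymax.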

TLR7 = molecular target: T2, TLR7 (Homo sapiens, UniProt Q9NYK1); assay: In vitro human TLR7 binding reporter assay (HEK-Blue, NF-kB/AP1-inducible SEAP); assay type: cell-based; settings: read-out: TLR7 Agonist EC50
T2 construct: human HEK-Blue cells co-expressing a TLR7 or TLR8 gene
T2 sequence (Q9NYK1 27-1049): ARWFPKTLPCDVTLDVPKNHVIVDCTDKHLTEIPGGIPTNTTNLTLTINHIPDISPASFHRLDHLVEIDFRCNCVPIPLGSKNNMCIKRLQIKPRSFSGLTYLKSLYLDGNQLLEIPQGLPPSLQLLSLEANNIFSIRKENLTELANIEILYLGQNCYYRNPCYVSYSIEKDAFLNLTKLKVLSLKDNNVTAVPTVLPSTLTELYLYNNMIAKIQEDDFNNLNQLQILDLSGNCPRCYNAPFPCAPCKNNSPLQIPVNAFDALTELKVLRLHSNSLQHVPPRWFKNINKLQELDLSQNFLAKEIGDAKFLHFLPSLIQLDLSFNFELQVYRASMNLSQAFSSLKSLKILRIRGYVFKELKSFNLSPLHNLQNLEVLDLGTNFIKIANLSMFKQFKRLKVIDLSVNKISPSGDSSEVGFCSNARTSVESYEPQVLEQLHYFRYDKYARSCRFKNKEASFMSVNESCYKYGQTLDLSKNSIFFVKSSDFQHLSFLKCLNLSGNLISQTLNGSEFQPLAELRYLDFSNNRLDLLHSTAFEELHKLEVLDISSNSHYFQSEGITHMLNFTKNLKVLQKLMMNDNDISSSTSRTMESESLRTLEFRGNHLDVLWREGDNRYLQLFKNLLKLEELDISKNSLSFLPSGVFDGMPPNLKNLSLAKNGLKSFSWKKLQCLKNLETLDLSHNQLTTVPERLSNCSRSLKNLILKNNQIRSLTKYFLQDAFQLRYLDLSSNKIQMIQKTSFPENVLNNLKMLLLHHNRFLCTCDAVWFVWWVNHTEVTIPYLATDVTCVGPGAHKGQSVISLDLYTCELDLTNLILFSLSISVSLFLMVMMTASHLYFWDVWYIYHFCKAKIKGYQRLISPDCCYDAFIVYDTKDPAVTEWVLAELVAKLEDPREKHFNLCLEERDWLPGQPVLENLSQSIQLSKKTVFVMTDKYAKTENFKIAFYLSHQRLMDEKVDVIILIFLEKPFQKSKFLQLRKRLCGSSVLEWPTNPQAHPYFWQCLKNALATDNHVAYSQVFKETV
Summary of the method: as §1

THP-1 cells = assay: Measurement of IL-1β production, hTRF protocol (second alternative procedure), THP-1 cells; assay type: cell-based, human
Summary of the method: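 THP-1 cells differentiated overnight with 50 ng/ml PMA, then plated at 50,000 cells/well in RPMI with 2% FBS onto serial compound dilutions (top final concentration 10 μM) for 2 hours at 37° C. Supernatant IL-1β measured by hTRF (antibodies at 1:40, overnight at 4° C), read at 665/615 nm against a standard curve.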

[1] = Homo sapiens, THP-1, IL-1β production, human, read-out: NLRP3 hILIB EC50
[2] = Homo sapiens, THP-1, IL-1β production, human cells, read-out: NLRP3 hILIB EC50

SMILES	EC50 (TLR8; activity range class)	EC50 (TLR7; activity range class)	EC50 (THP-1 cells; [1])	EC50 (TLR8; activity range)	EC50 (TLR7; activity range)	EC50 (THP-1 cells; [2])	EC50 (THP-1 cells; IL-1β production, human, read-out: NLRP3 hILIB EC50)	EC50 (THP-1 cells; Homo sapiens, THP-1, read-out: NLRP3 hILIB EC50)
Nc1nc2cc(-c3cc[nH]n3)ccc2c2cn(CCNC(=O)c3ncc(F)cc3F)nc12 [Example 66]	> 100 µM	> 100 µM	0.8 µM	–	–	–	–	–
CC(CCO)n1cc2c(n1)c(N)nc1cc(-c3ccn[nH]3)ccc12 (stereo not drawn) [Example 454]	–	–	–	> 100 µM	> 100 µM	0.37 µM	–	–
Nc1nc2cc(-c3cc[nH]n3)ccc2c2[nH]c(CNC(=O)C3CCCCO3)cc12 (stereo not drawn) [Example 413]	–	–	–	> 100 µM	> 100 µM	1.92 µM	–	–
Nc1nc2cc(-c3cc[nH]n3)ccc2c2nn(CC(O)CF)cc12 (single isomer, unassigned) [Example 376]	> 100 µM	> 100 µM	0.4 µM	–	–	–	–	–
Nc1nc2cc(-c3cc[nH]n3)ccc2c2[nH]c(CNCCF)cc12 [Example 496]	–	–	–	> 100 µM	> 100 µM	0.05 µM	–	–
Cc1nc(C(=O)NCCn2cc3c(n2)c(N)nc2cc(-c4cc[nH]n4)ccc23)cs1 [Example 43]	> 100 µM	> 100 µM	0.46 µM	–	–	–	–	–
Nc1nc2cc(-c3cc[nH]n3)ccc2c2cn(CCCOc3ccccc3)nc12 [Example 2, 2-(3-phenoxypropyl)-7-(1H-pyrazol-3-yl)-2H-pyrazolo[3,4-c]quinolin-4-amine]	20 to 100 µM	20 to 100 µM	0.43 µM	–	–	–	–	–
COC1CCC(n2cc3c(N)nc4cc(-c5cc[nH]n5)ccc4c3n2)C1 (stereo not drawn) [Example 246]	> 100 µM	> 100 µM	0.58 µM	–	–	–	–	–
Cc1[nH]c2c(c(N)nc3cc(-c4cc[nH]n4)ccc32)c1C [Example 423, 2,3-dimethyl-7-(1H-pyrazol-3-yl)-1H-pyrrolo[3,2-c]quinolin-4-amine]	–	–	–	> 100 µM	> 100 µM	0.62 µM	–	–
Nc1nc2cc(-c3cc[nH]n3)ccc2c2[nH]c(CNCC(F)(F)F)cc12 [Example 497]	–	–	–	> 100 µM	> 100 µM	0.05 µM	–	–
Nc1nc2cc(-c3cc[nH]n3)ccc2c2c1cnn2CC1CCCO1 (stereo not drawn) [Example 230]	> 100 µM	> 100 µM	0.87 µM	–	–	–	–	–
Nc1nc2cc(-c3ccn[nH]3)ccc2c2nn(CC3CCCN3)cc12 (stereo not drawn) [Example 278]	> 100 µM	> 100 µM	0.75 µM	–	–	–	–	–
Nc1nc2cc(-c3cc[nH]n3)ccc2c2cn(CCNC(=O)C3CCCCO3)nc12 (stereo not drawn) [Example 93]	> 100 µM	> 100 µM	0.63 µM	–	–	–	–	–
CC(=O)NC(C)Cn1cc2c(N)nc3cc(-c4ccn[nH]4)ccc3c2n1 (single isomer, unassigned) [Example 299]	> 100 µM	> 100 µM	–	–	–	–	2.92 µM	–
Nc1nc2cc(-c3cc[nH]n3)ccc2c2[nH]c(CNCC(F)F)cc12 [Example 520]	–	–	–	> 100 µM	> 100 µM	0.09 µM	–	–
Nc1nc2cc(-c3cc[nH]n3)ccc2c2nn(CC3CC3(F)F)cc12 (stereo not drawn) [Example 386]	> 100 µM	> 100 µM	0.21 µM	–	–	–	–	–
CC(C)(O)CCn1cc2c(N)nc3cc(-c4ccn[nH]4)ccc3c2n1 [Example 285]	> 100 µM	> 100 µM	0.63 µM	–	–	–	–	–

SMILES	EC50 (TLR8; activity range class)	EC50 (TLR7; activity range class)	EC50 (THP-1 cells; [1])	EC50 (TLR8; activity range)	EC50 (TLR7; activity range)	EC50 (THP-1 cells; [2])	EC50 (THP-1 cells; IL-1β production, human, read-out: NLRP3 hILIB EC50)	EC50 (THP-1 cells; Homo sapiens, THP-1, read-out: NLRP3 hILIB EC50)
CC(C)(C(=O)N1CC(F)(F)C1)n1cc2c(N)nc3cc(-c4cc[nH]n4)ccc3c2n1 [Example 523]	–	–	–	> 100 µM	> 100 µM	7.3 µM	–	–
CC(=O)NC(C)Cn1ncc2c(N)nc3cc(-c4cc[nH]n4)ccc3c21 (stereo not drawn) [Example 429]	–	–	–	> 100 µM	> 100 µM	13 µM	–	–
Nc1nc2cc(-c3ccn[nH]3)ccc2c2cn(CCO)cc12 [Example 455]	–	–	–	> 100 µM	> 100 µM	0.22 µM	–	–
CC(CO)n1cc2c(N)nc3cc(-c4ccn[nH]4)ccc3c2n1 (stereo not drawn) [Example 253, 2-[4-amino-7-(1H-pyrazol-5-yl)-2H-pyrazolo[4,3-c]quinolin-2-yl]propan-1-ol]	> 100 µM	> 100 µM	–	–	–	–	–	0.3 µM
CN(C)Cc1nc2c(N)nc3cc(-c4ccn[nH]4)ccc3c2s1 [Example 143, 2-[(dimethylamino)methyl]-7-(1H-pyrazol-5-yl)-[1,3]thiazolo[4,5-c]quinolin-4-amine]	> 100 µM	> 100 µM	0.4 µM	–	–	–	–	–
Nc1nc2cc(-c3cc[nH]n3)ccc2c2cn(Cc3ccccn3)nc12 [Example 25]	> 100 µM	> 100 µM	0.26 µM	–	–	–	–	–
Nc1nc2cc(-c3cc[nH]n3)ccc2c2nn(CCOCC(F)(F)F)cc12 [Example 333]	> 100 µM	> 100 µM	0.24 µM	–	–	–	–	–
Nc1nc2cc(-c3cc[nH]n3)ccc2c2c1cnn2Cc1cn[nH]c1 [Example 359]	> 100 µM	> 100 µM	1.45 µM	–	–	–	–	–
CS(=O)(=O)NCCn1cc2c(N)nc3cc(-c4cc[nH]n4)ccc3c2n1 [Example 206, N-(2-(4-amino-7-(1H-pyrazol-3-yl)-2H-pyrazolo[4,3-c]quinolin-2-yl)ethyl)methanesulfonamide]	> 100 µM	> 100 µM	0.26 µM	–	–	–	–	–
Nc1nc2cc(-c3cc[nH]n3)ccc2c2cn(CCNC(=O)c3ncccn3)nc12 [Example 70]	> 100 µM	> 100 µM	1.83 µM	–	–	–	–	–
Nc1nc2cc(-c3cc[nH]n3)ccc2c2cn(CCNC(=O)COCC(F)(F)F)nc12 [Example 178]	> 100 µM	> 100 µM	1.44 µM	–	–	–	–	–
COC1CCN(C(=O)C(C)(C)Cn2cc3c(N)nc4cc(-c5ccn[nH]5)ccc4c3n2)CC1 [Example 610]	–	–	–	> 100 µM	> 100 µM	4.41 µM	–	–
CC(C)(C(=O)NC1CCC1)n1cc2c(N)nc3cc(-c4cc[nH]n4)ccc3c2n1 [Example 524]	–	–	–	> 100 µM	> 100 µM	2.03 µM	–	–
CC(C(=O)NCc1ccccc1)n1cc2c(N)nc3cc(-c4ccn[nH]4)ccc3c2n1 (stereo not drawn) [Example 571]	–	–	–	> 100 µM	> 100 µM	2.02 µM	–	–
N#CCCCn1cc2c(N)nc3cc(-c4cc[nH]n4)ccc3c2n1 [Example 392]	> 100 µM	> 100 µM	0.08 µM	–	–	–	–	–
CNC(=O)CCn1cc2c(N)nc3cc(-n4cccn4)ccc3c2n1 [Example 556]	–	–	–	> 100 µM	> 100 µM	1.82 µM	–	–

— patent US12037344B2, “NLRP3 modulators” (INNATE TUMOR IMMUNITY, INC., priority 2018, dated 2024)
